Patent US20220041532A1, “HYDROFLUOROOLEFINS AND METHODS OF USING SAME” (3M INNOVATIVE PROPERTIES COMPANY, priority 2018, published 2022)

Key:
[1] = Largest Soluble Hydrocarbon (LSH) test; format: physicochemical; settings: hydrofluoroolefin:hydrocarbon about 1:1 to 1:2 by weight
Experimental: Largest Soluble Hydrocarbon (LSH): The LSH of each hydrofluoroolefin compound was determined by mixing the compound with hydrocarbons of varying molecular weight (CnH2n+2, where n=9 to 24) in a hydrofluoroolefin:hydrocarbon ratio of about 1:1 to 1:2 by weight at room temperature (25° C.) and at 50° C. […] A larger value of n is interpreted herein to indicate a greater ability of the hydrofluoroolefin to clean hydrocarbons.
The results presented in Table 2 indicate that the hydrofluoroolefins of the present invention are highly suitable fluids for cleaning applications.

[2] = Atmospheric lifetime from rates of reaction with hydroxyl radicals; format: physicochemical; settings: Degrades by direct photolysis and ozonolysis; value stated as 'Likely'
Experimental: Atmospheric lifetime: The atmospheric lifetimes of hydrobromofluoroolefin Examples 1-3 were determined from their rates of reaction with hydroxyl radicals. The pseudo-first order rate for the reaction of the gaseous hydrobromofluoroolefin with hydroxyl radical was measured in a series of experiments relative to reference compounds such as chloromethane and ethane. The measurements were performed in a 5.7 L, heated FTIR gas cell equipped with a polished semiconductor-grade quartz window. An Oriel Instruments UV Lamp, Model 66921 equipped with a 480W mercury-xenon bulb was used to generate hydroxyl radicals by photolyzing ozone in the presence of water vapor. The concentrations of the hydrobromofluoroolefin and the reference compound were measured as a function of reaction time using an I-Series FTIR from Midac Corporation. The atmospheric lifetime was calculated from the reaction rates for the hydrobromofluoroolefin relative to the reference compounds and the reported lifetime of the reference compounds as shown below:
where τx is the atmospheric lifetime of hydrobromofluoroolefin, τr is the atmospheric lifetime of the reference compound, and kx and kr are the rate constants for the reaction of hydroxyl radical with hydrobromofluoroolefin and the reference compound, respectively.
The atmospheric lifetimes of Examples 1-3 were determined from their rates of reaction with hydroxyl radicals as described above and are reported in Table 3.

[3] = 25° C., longest hydrocarbon compatible without haze
[4] = 50° C., >23 = miscible with C23H48 without haze

Structure (SMILES)	LSH (n in CnH2n+2) [1, 3]	LSH (n in CnH2n+2) [1, 4]	Atmospheric Lifetime [2]
FC(=CBr)C(F)(F)F [Example 1, 1-bromo-2,3,3,3-tetrafluoroprop-1-ene]	19	>23	ozonolysis. Likely <0.05 years
FC(=CBr)C(F)(F)C(F)(F)F [Example 2, 1-bromo-2,3,3,4,4,4-hexafluorobut-1-ene]	19	>23	ozonolysis. Likely <0.05 years
FC(=CBr)C(F)F [Example 3, 1-bromo-2,3,3-trifluoroprop-1-ene]	19	>23	ozonolysis. Likely <0.05 years
FC(=CBr)C(F)(F)C(F)(F)C(F)F [Example 4, I-bromo-2,3,3,4,4,5,5-heptafluoropent-1-ene]	19	>23	–
FC(=CCl)C(F)(F)C(F)(F)C(F)(F)F [Example 5, 1-chloro-2,3,3,4,4,5,5,5-pent-1-ene]	17	22	–
FC(=CCl)C(F)(F)C(F)(F)F [Example 6, 1-chloro-2,3,3,4,4,4-but-1-ene]	19	–	–
FC(=CCl)C(F)(F)OC(F)(F)F [Example 7, 1-chloro-2,3,3-trifluoro-3-(trifluoromethoxy)prop-1-ene]	19	>23	–
FC(=CCl)N1C(F)(F)C(F)(F)OC(F)(F)C1(F)F [Example 8, 4-(2-chloro-1-fluoro-vinyl)-2,2,3,3,5,5,6,6-octafluoro-morpholine]	14	18	–
FC(=CCl)C(F)(F)N(C(F)(F)F)C(F)(F)C(F)(F)F [Example 9, 3-chloro-1,1,2-trifluoro-N-(1,1,2,2,2-pentafluoroethyl)-N-(trifluoromethyl)prop-2-en-1-amine]	13	17	–
FC(=CCl)C(F)C(F)(F)F (stereo not drawn) [Example 10, 1-chloro-2,3,4,4,4-pentafluoro-but-1-ene]	19	>23	–
FC(=CCl)C(F)OC(F)(F)F (stereo not drawn) [Example 11, 1-chloro-2,3-difluoro-3-(trifluoromethoxy)prop-1-ene]	18	>23	–
